Results from the supplement of paper PMC10307832.

Columns and labels:
Assay in all cases: relative viability (nuclei count vs DMSO), 5 days (fraction); higher = more cells survive
[1] = compound: Cc1nc(C(=O)NCC(=O)O)c(O)c2ccc(Oc3ccccc3)cc12 [FG-4592] + NC(=O)Nc1cc(-c2cccc(F)c2)sc1C(=O)N[C@H]1CCCNC1 [AZD7762] (partner 0.2 µM)
In short: (§1)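 Lung cancer cell lines were pin-tool dosed in 1536-well plates on the day after seeding, with either a lone drug or a fixed anchor-drug dose plus five library-drug doses (not always all listed) in √10 steps. Nuclei were counted on 4× images after 5 days. Relative viability is the ratio of treated-well to vehicle-well nuclei counts, with each value a median of duplicate plates.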

[2] = compound: Cc1nc(C(=O)NCC(=O)O)c(O)c2ccc(Oc3ccccc3)cc12 [FG-4592] + COc1cccc2cc(-c3nc([C@H]4CC[C@H](C(=O)O)CC4)n4ncnc(N)c34)[nH]c12 [OSI-027] (partner 0.5 µM)
In short: as §1

[3] = compound: CC1=CC(=C(N1C2=CC=C(C=C2)Cl)C)C(=O)CN3CCCCC3 [IU1-47] + CS(=O)(=O)CCNCc1ccc(-c2ccc3ncnc(Nc4ccc(OCc5cccc(F)c5)c(Cl)c4)c3c2)o1 [Lapatinib] (partner 2 µM)
In short: as §1

[4] = compound: CC1=CC(=C(N1C2=CC=C(C=C2)Cl)C)C(=O)CN3CCCCC3 [IU1-47] + COc1cc2c(Oc3ccc(NC(=O)C4(C(=O)Nc5ccc(F)cc5)CC4)cc3F)ccnc2cc1OCCCN1CCOCC1 [Foretinib] (partner 0.25 µM)
In short: as §1

Cell Line	relative viability ([1]; first compound 0.08 µM)	relative viability ([1]; first compound 0.253 µM)	relative viability ([1]; first compound 0.8 µM)	relative viability ([1]; first compound 2.53 µM)	relative viability ([1]; first compound 8 µM)	relative viability ([2]; first compound 0.08 µM)	relative viability ([2]; first compound 0.253 µM)	relative viability ([2]; first compound 0.8 µM)	relative viability ([2]; first compound 2.53 µM)	relative viability ([2]; first compound 8 µM)	relative viability ([3]; first compound 0.08 µM)	relative viability ([3]; first compound 0.253 µM)	relative viability ([3]; first compound 0.8 µM)	relative viability ([3]; first compound 2.53 µM)	relative viability ([3]; first compound 8 µM)	relative viability ([4]; first compound 0.08 µM)	relative viability ([4]; first compound 0.253 µM)	relative viability ([4]; first compound 0.8 µM)	relative viability ([4]; first compound 2.53 µM)	relative viability ([4]; first compound 8 µM)
HOP-62	0.501	0.509	0.476	0.472	0.529	0.839	0.736	0.814	0.722	0.713	1.14	1.01	1.12	0.844	0.954	1.17	1.12	1.04	1.11	1.13
LC-2-ad	0.912	0.833	0.831	0.817	0.83	0.838	0.753		0.591	0.661	1.09	0.928	0.836	1.25	1.04	1	1.07	0.908	0.794	0.878
LCLC-97TM1	0.255	0.173	0.274	0.132	0.315	0.665	0.397	0.716	0.488	0.395	1.34	0.635	0.92		0.78	0.957	1.02	0.892	0.725	0.856
LK-2	0.273	0.355		0.358	0.342	0.185	0.19	0.223	0.185	0.174	1.15	1.26	0.963	0.703	0.517	1.8	1.82	1.78	0.89	0.943
LOU-NH91	0.755	0.733	0.717	0.723	0.732	0.722	0.399	0.753	0.666	0.687	0.784	0.877	0.812	0.762	0.702	0.988	1	0.903	0.891	0.966
LU99A	0.37	0.387		0.381	0.346	0.332	0.276	0.296	0.267	0.27	0.933	1.07	1.16	1.02	1	0.768	0.759	0.859	0.932	0.702
LXF-289	1.12	1.01	1.27	1.08	1.34	0.659	0.717	0.755	0.709	0.821	0.935	0.921	0.877	0.911	0.819	1.01	1.06	1.1	0.967	0.902
NCI-H23	0.243	0.257	0.206	0.285	0.164	0.612	0.517	0.488	0.325	0.439	1.04	1.05	1.26	0.995	1.25	0.91	1.14	1.04	1.17	1.03
NCI-H322M		0.518	0.497	0.629	0.43	0.507	0.543	0.557	0.488	0.469	0.574	0.622	0.507	0.633	0.561	1.07	1.03	0.882	0.965	1.03
NCI-H358	0.44	0.502	0.55	0.502	0.458	0.695	0.664	0.83	0.702	0.572	0.445	0.381	0.481		0.456	0.828	0.628	0.863	0.652	0.658
NCI-H460	0.698	0.583	0.462	0.725	0.668	0.757	0.641	0.721	0.554	0.614	1.2	1.14	0.997	0.655	0.7	1.09	1.04	1.26	0.86	1.15
NCI-H596	1.1	1.08		1.15	0.952	0.595	0.634	0.513	0.431	0.434	1.04	1.11	1.02	1.2	0.989	0.893	0.82	0.806	0.87	0.761
NCI-H647	0.431	0.429	0.367	0.422	0.532	0.547	0.675	0.686	0.565	0.602	1.02	1.22	1.37	1.22	0.49	1.12	1.36		1.25	1.34
NCI-H650	1.06	1.03	1.09	1.04	0.755	0.492	0.457	0.433	0.45	0.407	0.854	0.934	0.656	1.03	0.74	1.06	1.01	1.02	0.881	1.07
NCI-H727	0.51	0.555	0.763	0.563	0.482	0.41	0.46	0.596	0.524	0.593	0.762		1.11	0.642	0.833	1.05	0.988	0.871	1.02	0.987
